Measured values from publication PMC6469168, “Localization of ^99mTc-GRP Analogs in GRPR-Expressing Tumors: Effects of Peptide Length and Neprilysin Inhibition on Biological Responses” (Pharmaceuticals, 2019).
Like-named read-outs stand apart in the source and are kept apart here. Each block holds one compound with its values, some of them ahead of it. Where no end group is shown, it is not given here. The star is where a group is joined. DOTA = O=C(O)CN1CCN(CC(=O)O)CCN(CC(=O)*)CCN(CC(=O)O)CC1; N4 = tetraamine chelator for 99mTc

Tests used:
[1] = target: T1, BB3R in human lung (bronchial) carcinoids (Homo sapiens, UniProt P32247); assay: Receptor autoradiography competition binding vs ^125I-[DTyr^6,βAla^11,Phe^13,Nle^14]BBN(6–14) in human tumor sections; settings: human lung (bronchial) carcinoid sections, same universal radioligand, mean ± SEM, n in parentheses, read-out: IC50s in nM, BB3R
T1 construct: from tissue; host or cells: human bronchial carcinoid cryostat sections
T1 sequence (P32247 1-399): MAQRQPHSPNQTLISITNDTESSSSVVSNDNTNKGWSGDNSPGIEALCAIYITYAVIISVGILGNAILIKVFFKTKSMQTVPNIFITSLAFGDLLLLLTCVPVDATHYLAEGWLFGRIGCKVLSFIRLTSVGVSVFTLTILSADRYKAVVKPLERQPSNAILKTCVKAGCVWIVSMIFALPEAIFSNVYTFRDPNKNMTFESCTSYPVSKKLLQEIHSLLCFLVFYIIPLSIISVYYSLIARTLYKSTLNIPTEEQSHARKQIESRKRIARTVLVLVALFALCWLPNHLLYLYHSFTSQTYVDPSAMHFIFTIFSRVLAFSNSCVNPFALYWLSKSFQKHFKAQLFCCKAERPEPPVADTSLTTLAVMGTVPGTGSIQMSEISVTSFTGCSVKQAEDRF
Description: IC50 values are given in nM ± SEM.

[2] = target: T2, GRPR-sites on PC-3 cell membranes (Homo sapiens, UniProt P30550); assay: Competition binding against [^125I-Tyr^4]BBN in PC-3 cell membranes; settings: 1 h at 22 °C, 50 pM radioligand, triplicates per concentration, read-out: IC50, [^125I-Tyr^4]BBN displacement from GRPR-sites
T2 construct: PC-3 cells endogenously expressing the human GRPR; host or cells: PC-3 cell-membrane homogenates
T2 sequence (P30550 whole entry): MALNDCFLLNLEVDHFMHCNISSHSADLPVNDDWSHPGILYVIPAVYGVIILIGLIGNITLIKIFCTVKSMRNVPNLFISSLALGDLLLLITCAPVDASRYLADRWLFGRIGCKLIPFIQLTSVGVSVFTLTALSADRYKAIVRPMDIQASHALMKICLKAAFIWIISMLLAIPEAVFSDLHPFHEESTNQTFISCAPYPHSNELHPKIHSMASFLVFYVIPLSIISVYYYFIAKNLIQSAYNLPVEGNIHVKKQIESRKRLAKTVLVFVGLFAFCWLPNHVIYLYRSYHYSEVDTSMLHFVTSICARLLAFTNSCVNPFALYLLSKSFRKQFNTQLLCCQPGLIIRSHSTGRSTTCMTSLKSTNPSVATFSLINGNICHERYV
Description: Moreover, coupling of the positively charged acyclic tetraamine unit in the N-terminus of parent GRP(14/18–27) references improved the affinity of resulting analogs to the GRPR, as previously reported for similarly modified peptide analogs.
(b) GRPR-specific internalization of ^99mTc-N4-GRP(14–27) (red solid line) and ^99mTc-N4-GRP(18–27) (blue solid line) in PC-3 cells during incubation at 37 °C at 15, 30, 60, and 120 min. Results represent average of cell internalized activity ± sd, n = 3; data is corrected for nonspecific internalization in the presence of 1 µM [Tyr^4]BBN.
Competition binding experiments against [^125I-Tyr^4] […] For the assay, triplicates per concentration point (concentration range: 10^−13–10^−6 M) of each test peptide were incubated together with the radioligand (~40,000 cpm per assay tube at a 50 pM concentration) in PC-3 cell-membrane homogenates in a total volume of 300 μL binding buffer (BB, 50 mM HEPES pH 7.4, 1% BSA, 5.5 mM MgCl2, 35 μM bacitracin) for 1 h at 22 °C in an Incubator-Orbital Shaker (MPM Instr. SrI, Bernareggio, Italy). Binding was interrupted by ice-cold washing buffer (WB, 10 mM HEPES pH 7.4, 150 mM NaCl) and rapid filtration (Whatman GF/B filters presoaked in BB) on a Brandel Cell Harvester (Adi Hassel Ing. Büro, Munich, Germany). Filters were washed with ice-cold WB and counted in an automatic well-type gamma counter (NaI(Tl) 3′-crystal, Cobra Packard Auto-Gamma 5000 series instrument). The IC50 values were calculated using nonlinear regression according to a one-site model applying the PRISM 2 program (Graph Pad Software, San Diego, CA, USA).

[3] = target: T3, NMBR in human ileal carcinoids (Homo sapiens, UniProt P28336); settings: receptor autoradiography, human ileal carcinoid sections; mean, n = 2; read-out: IC50s in nM, NMBR; cited from earlier work
T3 construct: from tissue; host or cells: human ileal carcinoid cryostat sections
T3 sequence (P28336 whole entry): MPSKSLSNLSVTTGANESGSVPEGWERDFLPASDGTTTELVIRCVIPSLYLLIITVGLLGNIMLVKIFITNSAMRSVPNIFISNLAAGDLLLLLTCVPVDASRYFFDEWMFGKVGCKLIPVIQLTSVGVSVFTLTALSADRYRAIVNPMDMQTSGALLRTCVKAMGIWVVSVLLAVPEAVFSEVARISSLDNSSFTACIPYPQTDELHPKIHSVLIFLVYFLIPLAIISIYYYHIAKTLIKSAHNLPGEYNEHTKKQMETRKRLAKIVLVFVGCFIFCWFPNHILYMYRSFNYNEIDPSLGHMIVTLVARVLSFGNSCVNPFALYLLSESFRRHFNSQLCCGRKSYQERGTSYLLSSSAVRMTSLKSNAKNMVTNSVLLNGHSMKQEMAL
Text: (§1) Table 1 Affinities for the three human bombesin receptor subtypes. | column: IC50s in nM / NMBR ^2 || The selective affinities of N4-GRP(14–27) for each of the three bombesin receptor subtypes found in mammals were studied during in vitro competition binding assays against the universal radioligand ^125I-[DTyr^6,βAla^11,Phe^13,Nle^14]BBN(6–14). Receptor autoradiography was applied in cryostat sections of well characterized human cancers, preferentially expressing one of the subtypes.

[4] = system: GRPR; settings: DOTA-derivatized analogs; read-out: IC50, GRPR binding affinity; cited from earlier work
Text: It is interesting to note that the presence of the positively charged N4^+x-moiety at positions 13 and 17 of the native GRP chain occupy the two basic amino acids Lys^13 and Arg^17.

[5] = target: T4, GRPR expressed in human prostate cancer (Homo sapiens, UniProt P30550); settings: receptor autoradiography, human prostate cancer sections; mean, n = 2; read-out: IC50s in nM, GRPR; cited from earlier work
T4 construct: from tissue; host or cells: human prostate carcinoma cryostat sections
T4 sequence (P30550 whole entry): as the sequence (P30550 whole entry) above
Text: as §1, with “GRPR ^1” for “NMBR ^2”

[6] = target: T1, BB3R in human lung (bronchial) carcinoids; settings: receptor autoradiography, human lung carcinoid sections; read-out: IC50s in nM, BB3R; cited from earlier work
Text: Receptor autoradiography was applied in cryostat sections of well characterized human cancers, preferentially expressing one of the subtypes.

[7] = system: PC-3 cells; assay: Internalization assay in PC-3 cells; type: cell-based, human; settings: 37 °C, corrected for nonspecific (1 µM [Tyr^4]BBN), average ± sd, n = 3
Description: In both cases the bulk of cell-associated radioactivity was found in the cells with ^99mTc-N4-GRP(14–27) internalizing much faster in PC-3 cells compared to ^99mTc-N4-GRP(18–27) at all time intervals (Figure 3b).
The internalization rates of ^99mTc-N4-GRP(14–27) and ^99mTc-N4-GRP(18–27) were compared in PC-3 cells. Briefly, PC-3 cells were seeded in six-well plates (~1 × 10^6 cells per well) 24 h before the experiment. Approximately 50,000 cpm of either ^99mTc-N4-GRP(14–27) or ^99mTc-N4-GRP(18–27) (corresponding to 250 fmol total peptide in 150 μL of 0.5% BSA/PBS) was added alone (total) or in the presence of 1 μM [Tyr^4]BBN (nonspecific). Cells were incubated at 37 °C for 15, 30, 60, and 120 min and incubation was interrupted each time by placing the plates on ice, removing the supernatants and rapid rinsing with ice-cold 0.5% BSA/PBS. Cells were then treated 2 × 5 min with acid wash buffer (2 × 0.6 mL, 50 mM glycine buffer pH 2.8, 0.1 M NaCl) at room temperature and supernatants were collected (membrane-bound fraction). After rinsing with 1 mL chilled 0.5% BSA/PBS, cells were lysed by treatment with 1 N NaOH (2 × 0.6 mL) and lysates were collected (internalized fraction). Sample radioactivity was measured in the γ-counter and percent internalized radioactivity was determined vs. total added activity. Results represent the average values ± sd of three experiments performed in triplicate.

IC50 [2]: 0.32 ± 0.03 nM
Compound: CSCC[C@H](NC(=O)[C@H](CC(C)C)NC(=O)[C@H](Cc1c[nH]cn1)NC(=O)CNC(=O)[C@@H](NC(=O)[C@H](C)NC(=O)[C@H](Cc1c[nH]c2ccccc12)NC(=O)[C@H](Cc1c[nH]cn1)NC(=O)[C@H](CC(N)=O)NC(=O)CNC(=O)[C@H](CCCNC(=N)N)NC(=O)[C@@H]1CCCN1C(=O)[C@H](Cc1ccc(O)cc1)NC(=O)[C@H](CCSC)NC(=O)C(CNCCN)CNCCN)C(C)C)C(N)=O [N4-GRP(14–27)]
IC50 [1]: > 1000 nM

IC50 [2]: 0.63 ± 0.06 nM
Compound: CSCC[C@H](NC(=O)[C@H](CC(C)C)NC(=O)[C@H](Cc1c[nH]cn1)NC(=O)CNC(=O)[C@@H](NC(=O)[C@H](C)NC(=O)[C@H](Cc1c[nH]c2ccccc12)NC(=O)[C@H](Cc1c[nH]cn1)NC(=O)[C@H](CC(N)=O)NC(=O)CNC(=O)C(CNCCN)CNCCN)C(C)C)C(N)=O [N4-GRP(18–27)]

Compound: N4-[Pro^1,Tyr^4]BBN (PQRYGNQWAVGHLM; not fully specified (N-terminus); ends and bridges not checked) [Demobesin 3, tetraamine derivatized BBN-like analog]
IC50 [3]: 1.6 nM

Compound: DOTA-GRP(14–27): GRP(14–27) coupled to DOTA, previously reported ({DOTA}-MYPRGNHWAVGHLM-NH2; ends and bridges not checked; UniProt P07492 37-50, looked up, fragment)
IC50 [4]: 6.6 ± 0.9 nM

Compound: N4-[Pro^1,Tyr^4]BBN (PQRYGNQWAVGHLM) [Demobesin 3, tetraamine derivatized BBN-like analog]
IC50 [5]: 0.5 nM
IC50 [6]: > 100 nM

IC50 [2]: 0.45 ± 0.02 nM
Compound: CSCC[C@H](NC(=O)[C@H](CC(C)C)NC(=O)[C@H](Cc1c[nH]cn1)NC(=O)CNC(=O)[C@@H](NC(=O)[C@H](C)NC(=O)[C@H](Cc1c[nH]c2ccccc12)NC(=O)[C@H](Cc1c[nH]cn1)NC(=O)[C@H](CC(N)=O)NC(=O)CNC(=O)[C@H](CCCNC(=N)N)NC(=O)[C@@H]1CCCN1C(=O)[C@H](Cc1ccc(O)cc1)NC(=O)[C@@H](N)CCSC)C(C)C)C(N)=O [GRP(14–27)]

IC50 [2]: 1.66 ± 0.2 nM
Compound: CSCC[C@H](NC(=O)[C@H](CC(C)C)NC(=O)[C@H](Cc1cnc[nH]1)NC(=O)CNC(=O)[C@@H](NC(=O)[C@H](C)NC(=O)[C@H](Cc1c[nH]c2ccccc12)NC(=O)[C@H](Cc1cnc[nH]1)NC(=O)[C@H](CC(N)=O)NC(=O)CN)C(C)C)C(N)=O [GRP(18–27), H-Gly-Asn-His-Trp-Ala- Val-Gly-His-Leu-Met-NH2]

Compound: ^99mTc-N4-GRP(18–27): ^99mTc-labeled N4-GRP(18–27) radioligand (N4-GNHWAVGHLM-NH2; ends and bridges not checked; also: 99mTc complex at N4; UniProt P07492 41-50, looked up, fragment)
specifically internalized, % of total added activity ([7]; 1 h): 5.0 ± 0.3%
specifically internalized, % of total added activity ([7]; 2 h): 6.9 ± 1.5%

Compound: DOTA-GRP(18–27): GRP(18–27) coupled to DOTA, previously reported
IC50 [4]: 112 ± 16 nM

Compound: ^99mTc-N4-GRP(14–27): ^99mTc-labeled N4-GRP(14–27) radioligand (N4-MYPRGNHWAVGHLM-NH2; ends and bridges not checked; also: 99mTc complex at N4; UniProt P07492 37-50, looked up, fragment)
specifically internalized, % of total added activity ([7]; 1 h): 12.7 ± 0.7%
specifically internalized, % of total added activity ([7]; 2 h): 19.5 ± 1.4%
